Assay results as given in patent US8697369B2, “Method for screening a test substance for activating a receptor associated with FGF 21 activity” (National Institute of Advanced Industrial Science and …, priority 2007, dated 2014).
Entries after “also recorded” stand apart in the source; their conditions may differ.

Columns and labels:
[1] = target: T1, FGFR1c/betaKlotho-expressing BaF3 cells (Mus musculus, UniProt P16092+Q99N32); experiment: DNA synthesis (thymidine incorporation) in FGFR1c/betaKlotho-expressing BaF3 cells; assay type: cell-based
T1 construct: the entire-length cDNA of mouse FGFR1c had been cloned; the entire-length cDNA of mouse betaKlotho was cloned into an animal cell expression vector; expressed in transfected cells; host or cells: BaF3 (mouse pro-B) cells
Description: (§1) A commonly used measurement method is a cell growth stimulating activity measurement method described in Ornitz, D. M., Xu, J., Colvin, J. S., McEwen, D. G., MacArthur, C. A., Coulier, F., Gao, G. and Goldfarb, M. (1996) Receptor specificity of the fibroblast growth factor family. J Biol Chem, 271, 15292-15297. The summary thereof is as follows. FGF used as a measurement target is added to a culture solution containing a cultured cell having an FGF receptor on the surface thereof, and the obtained mixture is cultured for a certain period of time. Thereafter, a labeled thymidine is added to the culture solution, followed by further culture for a certain period of time. By measuring the amount of the labeled thymidine incorporated into polymeric DNA during the culture, the degree of FGF to activate DNA synthesis is evaluated. (In the present invention as well, this method was adopted when the activity of FGF21 was measured in Examples 4, 5, 6, 8, 9, and 10.)
FGFR1c-expressing BaF3 cells and FGFR1c- and betaKlotho-expressing BaF3 cells were prepared as follows. In the case of FGFR1c-expressing BaF3 cells, an animal cell expression vector into which the entire-length cDNA of mouse FGFR1c had been cloned (described in Ornitz, D. M., Xu, J., Colvin, J. S., McEwen, D. G., MacArthur, C. A., Coulier, F., Gao, G. and Goldfarb, M. (1996) Receptor specificity of the fibroblast growth factor family. J Biol Chem, 271, 15292-15297.) was introduced into BaF3 cells by an electroporation method. The cells were then cultured in the presence of G418 for approximately 2 weeks, so as to obtain drug-resistant clones. Thereafter, such clones were obtained as those capable of growing as a result of FGF1 stimulation. In the case of both FGFR1c- and betaKlotho-expressing BaF3 cells, the entire-length cDNA of mouse betaKlotho was cloned into an animal cell expression vector, and it was then introduced into the FGFR1c-expressing BaF3 cells. The cells were then cultured in the presence of Puromycin and G418 for approximately 2 weeks, so as to obtain drug-resistant clones. In the case of only betaKlotho-expressing BaF3 cells, a betaKlotho-expressing vector was introduced into BaF3 cells, and Puromycin-resistant clones were then obtained. The BaF3 cells, into which the aforementioned genes had been each introduced, were maintained in an RPMI1640 medium containing 10% FBS and interleukin 3 (IL3, supplied by adding a 5% condition medium of WEHI-3 cells). For the growth stimulation experiment, the cells were washed with an RPMI1640 medium, and they were then suspended in an RPMI1640 medium containing 10% FBS, followed by inoculating the suspension on a culture plate. Thereafter, the resultant cells were used.
Immediately after inoculation, BaF3 cells that had expressed each clone and only FGFR1c were stimulated by addition of FGF21 (open bar) or PBS (filled bar) used as a control in the presence of heparin, and they were then cultured for 42 hours. Thereafter, tritium-labeled thymidine was added to the culture solution, and the culture was further continued for 6 hours. Thereafter, the amount of thymidine incorporated into the cells was measured, so as to evaluate DNA synthesis. A DNA synthesis value obtained when the cells were not stimulated with FGF21 was defined as 1, and the ratio of a DNA synthesis value obtained by stimulating with FGF21 to the aforementioned DNA synthesis value was expressed using magnification. […]

[2] = test system: FGFR3c/betaKlotho-expressing BaF3 cells; experiment: DNA synthesis (thymidine incorporation) in FGFR3c/betaKlotho-expressing BaF3 cells; assay type: cell-based, mouse
Description: as §1
(§2) Whether other receptor molecules can also act as such FGF receptors was examined. An expression vector containing each FGFR (FGFR1b, R1c, R2b, R2c, R3b, R3c, and R4) (described in Ornitz, D. M., Xu, J., Colvin, J. S., McEwen, D. G., MacArthur, C. A., Coulier, F., Gao, G. and Goldfarb, M. (1996) Receptor specificity of the fibroblast growth factor family. J Biol Chem, 271, 15292-15297.) was introduced into betaKlotho-expressing BaF3 cells, so as to obtain clones that were resistant to Puromycin and G418, thereby obtaining FGFR/betaKlotho-expressing cells. Such cells were stimulated with FGF21, and the amount of DNA synthesized was measured.
The activity of FGF21 to stimulate the DNA synthesis of BaF3 cells that had expressed each FGFR (FGFR1c, R2c, F3c, and R4) as well as betaKlotho was compared with the activity of FGF19, which was evolutionally relative to FGF21. By procedures opposite to those of Example 5, namely, an expression vector containing betaKlotho was introduced into BaF3 cells that had expressed each type of FGFR, so as to obtain Puromycin- and G418-resistant clones, thereby obtaining FGFR/betaKlotho-expressing cells. The cells were stimulated with FGF21, FGF19, and FGF1 in the presence of heparin, while changing the amounts of FGF21, FGF19, and FGF1, as shown in the figure, and the amount of DNA synthesized was then measured.

[3] = target: T2, FGFR2c/betaKlotho-expressing BaF3 cells (Mus musculus, UniProt P21803+Q99N32); experiment: DNA synthesis (thymidine incorporation) in FGFR2c/betaKlotho-expressing BaF3 cells; assay type: cell-based; conditions: BaF3 cells expressing FGFR2c and betaKlotho; presence of heparin
T2 construct: the entire-length cDNA of mouse betaKlotho was cloned into an animal cell expression vector; expressed in transfected cells; host or cells: BaF3 (mouse pro-B) cells
Description: as §1, §2
(§3) The activity of FGF21 to stimulate the DNA synthesis of BaF3 cells that had expressed each FGFR (FGFR1c, R2c, F3c, and R4) as well as betaKlotho was compared with the activity of FGF19, which was evolutionally relative to FGF21. […] The cells were stimulated with FGF21, FGF19, and FGF1 in the presence of heparin, while changing the amounts of FGF21, FGF19, and FGF1, as shown in the figure, and the amount of DNA synthesized was then measured.

[4] = test system: FGFR4/betaKlotho-expressing BaF3 cells; experiment: DNA synthesis (thymidine incorporation) in FGFR4/betaKlotho-expressing BaF3 cells; assay type: cell-based, mouse; conditions: BaF3 cells expressing FGFR4 and betaKlotho; presence of heparin
Description: as §1, §2, §3

[5] = target: T3, R1c/betaKlotho-expressing cells (Mus musculus, UniProt P16092+Q99N32); experiment: Phosphorylation of FRS2 and MAPK (Western blotting) in R1c/betaKlotho-expressing cells; assay type: cell-based; conditions: presence of heparin; 10 minutes stimulation
T3 construct: the entire-length cDNA of mouse FGFR1c had been cloned; the entire-length cDNA of mouse betaKlotho was cloned into an animal cell expression vector; expressed in transfected cells; host or cells: BaF3 (mouse pro-B) cells
Description: (§4) Each FGFR/betaKlotho-expressing cells obtained in Example 6 were stimulated with FGF, and the activated state (phosphorylated state) of a signaling molecule FRS2 (fibroblast growth factor receptor substrate 2) located downstream of FGFR, and that of MAPK (mitogen activated protein kinase; alias: ERK (extracellular signal-regulated kinase; in general, there are two types of ERKs, namely, ERK1 with a molecular weight of 44 kDa and ERK2 with a molecular weight of 42 kDa)), were analyzed. Different types of cells were stimulated with each FGF in the presence of heparin for 10 minutes, and a cell lysate was then prepared. Thereafter, the phosphorylated degree was evaluated by measuring it by a Western blotting method using a commercially available anti-phosphorylation FRS2 antibody or an anti-phosphorylation MAPK antibody.

[6] = target: T4, FGFR2c/betaKlotho-expressing cells (Mus musculus, UniProt P21803+Q99N32); experiment: Phosphorylation of FRS2 and MAPK (Western blotting) in FGFR2c/betaKlotho-expressing cells; assay type: cell-based; conditions: presence of heparin; 10 minutes stimulation
T4 construct: the entire-length cDNA of mouse betaKlotho was cloned into an animal cell expression vector; expressed in transfected cells; host or cells: BaF3 (mouse pro-B) cells
Description: as §4

[7] = test system: R3c/betaKlotho-expressing cells; experiment: Phosphorylation of FRS2 and MAPK (Western blotting) in R3c/betaKlotho-expressing cells; assay type: cell-based, mouse; conditions: presence of heparin; 10 minutes stimulation
Description: as §4

[8] = test system: FGFR4/betaKlotho-expressing cells; experiment: Phosphorylation of FRS2 and MAPK (Western blotting) in FGFR4/betaKlotho-expressing cells; assay type: cell-based, mouse; conditions: presence of heparin; 10 minutes stimulation
Description: as §4

[9] = target: T5, betaKlotho-expressing BaF3 cells (Mus musculus, UniProt Q99N32); experiment: DNA synthesis (thymidine incorporation) in BaF3 cells expressing only betaKlotho; assay type: cell-based; conditions: presence or absence of heparin
T5 construct: the entire-length cDNA of mouse betaKlotho was cloned into an animal cell expression vector; expressed in transfected cells; host or cells: BaF3 (mouse pro-B) cells
T5 sequence (Q99N32 1-1043): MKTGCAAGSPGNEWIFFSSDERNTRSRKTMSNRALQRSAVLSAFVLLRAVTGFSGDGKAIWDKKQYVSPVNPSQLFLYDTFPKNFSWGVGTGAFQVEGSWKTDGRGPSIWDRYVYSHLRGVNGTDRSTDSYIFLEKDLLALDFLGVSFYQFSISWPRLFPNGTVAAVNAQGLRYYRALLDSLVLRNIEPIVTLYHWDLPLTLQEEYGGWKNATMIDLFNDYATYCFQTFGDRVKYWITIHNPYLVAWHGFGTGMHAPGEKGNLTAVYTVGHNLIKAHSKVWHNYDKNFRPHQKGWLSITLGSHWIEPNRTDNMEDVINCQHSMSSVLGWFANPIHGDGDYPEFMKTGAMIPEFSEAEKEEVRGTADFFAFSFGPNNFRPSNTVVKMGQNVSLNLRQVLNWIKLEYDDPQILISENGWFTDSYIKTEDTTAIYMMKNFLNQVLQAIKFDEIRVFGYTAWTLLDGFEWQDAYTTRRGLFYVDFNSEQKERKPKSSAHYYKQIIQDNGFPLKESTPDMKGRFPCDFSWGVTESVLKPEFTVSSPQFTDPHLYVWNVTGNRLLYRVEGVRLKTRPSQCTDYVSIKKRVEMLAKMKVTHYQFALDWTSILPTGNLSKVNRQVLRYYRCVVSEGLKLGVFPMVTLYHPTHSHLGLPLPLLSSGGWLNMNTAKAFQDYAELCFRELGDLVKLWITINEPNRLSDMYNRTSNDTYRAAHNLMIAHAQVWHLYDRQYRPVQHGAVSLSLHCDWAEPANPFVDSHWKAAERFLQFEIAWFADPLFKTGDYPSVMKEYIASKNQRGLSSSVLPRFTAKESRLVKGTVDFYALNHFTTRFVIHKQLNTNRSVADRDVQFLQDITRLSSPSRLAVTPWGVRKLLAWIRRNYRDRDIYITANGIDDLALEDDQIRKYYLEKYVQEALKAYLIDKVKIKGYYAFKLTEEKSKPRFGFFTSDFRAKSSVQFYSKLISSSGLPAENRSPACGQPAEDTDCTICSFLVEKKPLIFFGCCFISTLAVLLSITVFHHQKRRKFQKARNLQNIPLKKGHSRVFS
Description: as §1, with “10.) […]” for “10.)”
Immediately after inoculation, BaF3 cells that had expressed each clone and only FGFR1c were stimulated by addition of FGF21 (open bar) or PBS (filled bar) used as a control in the presence of heparin, and they were then cultured for 42 hours. […] Thereafter, the amount of thymidine incorporated into the cells was measured, so as to evaluate DNA synthesis. […]

T1 sequence (P16092 22-822, one chain of several): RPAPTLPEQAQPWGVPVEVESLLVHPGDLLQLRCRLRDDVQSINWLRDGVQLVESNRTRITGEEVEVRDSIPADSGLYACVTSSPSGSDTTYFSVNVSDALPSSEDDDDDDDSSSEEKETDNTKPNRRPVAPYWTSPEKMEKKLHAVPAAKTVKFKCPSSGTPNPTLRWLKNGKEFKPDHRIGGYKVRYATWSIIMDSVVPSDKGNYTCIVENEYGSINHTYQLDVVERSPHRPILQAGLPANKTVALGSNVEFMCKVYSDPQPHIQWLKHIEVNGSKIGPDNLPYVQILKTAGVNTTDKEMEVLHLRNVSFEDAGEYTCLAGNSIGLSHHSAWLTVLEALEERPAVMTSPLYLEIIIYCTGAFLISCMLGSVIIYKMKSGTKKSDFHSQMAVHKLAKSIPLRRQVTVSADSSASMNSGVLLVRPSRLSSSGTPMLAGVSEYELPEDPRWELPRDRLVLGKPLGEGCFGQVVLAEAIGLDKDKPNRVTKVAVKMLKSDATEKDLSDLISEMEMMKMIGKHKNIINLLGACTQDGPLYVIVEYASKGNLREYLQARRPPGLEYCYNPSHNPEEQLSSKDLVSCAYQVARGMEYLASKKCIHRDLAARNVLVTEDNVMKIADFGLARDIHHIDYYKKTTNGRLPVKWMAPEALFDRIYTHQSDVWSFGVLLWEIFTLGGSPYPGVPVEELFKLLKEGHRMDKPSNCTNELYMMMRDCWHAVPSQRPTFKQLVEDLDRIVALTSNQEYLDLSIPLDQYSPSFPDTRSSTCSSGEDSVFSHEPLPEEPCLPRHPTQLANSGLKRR
Chain of FGFR3c/betaKlotho-expressing BaF3 cells (Q61851 21-369 limits assumed, one chain of several): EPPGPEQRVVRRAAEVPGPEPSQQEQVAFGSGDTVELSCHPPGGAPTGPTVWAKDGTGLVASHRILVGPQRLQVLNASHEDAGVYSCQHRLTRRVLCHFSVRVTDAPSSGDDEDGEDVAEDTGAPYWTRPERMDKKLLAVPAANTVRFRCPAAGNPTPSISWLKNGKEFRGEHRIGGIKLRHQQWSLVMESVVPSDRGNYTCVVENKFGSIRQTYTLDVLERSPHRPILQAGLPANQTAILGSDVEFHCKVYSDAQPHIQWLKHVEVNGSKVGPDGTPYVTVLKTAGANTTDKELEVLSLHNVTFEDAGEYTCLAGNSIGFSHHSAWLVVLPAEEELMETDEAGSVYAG
Chain of R3c/betaKlotho-expressing cells (Q61851 21-369 limits assumed, one chain of several): as above
T4 sequence (P21803 22-821, one chain of several): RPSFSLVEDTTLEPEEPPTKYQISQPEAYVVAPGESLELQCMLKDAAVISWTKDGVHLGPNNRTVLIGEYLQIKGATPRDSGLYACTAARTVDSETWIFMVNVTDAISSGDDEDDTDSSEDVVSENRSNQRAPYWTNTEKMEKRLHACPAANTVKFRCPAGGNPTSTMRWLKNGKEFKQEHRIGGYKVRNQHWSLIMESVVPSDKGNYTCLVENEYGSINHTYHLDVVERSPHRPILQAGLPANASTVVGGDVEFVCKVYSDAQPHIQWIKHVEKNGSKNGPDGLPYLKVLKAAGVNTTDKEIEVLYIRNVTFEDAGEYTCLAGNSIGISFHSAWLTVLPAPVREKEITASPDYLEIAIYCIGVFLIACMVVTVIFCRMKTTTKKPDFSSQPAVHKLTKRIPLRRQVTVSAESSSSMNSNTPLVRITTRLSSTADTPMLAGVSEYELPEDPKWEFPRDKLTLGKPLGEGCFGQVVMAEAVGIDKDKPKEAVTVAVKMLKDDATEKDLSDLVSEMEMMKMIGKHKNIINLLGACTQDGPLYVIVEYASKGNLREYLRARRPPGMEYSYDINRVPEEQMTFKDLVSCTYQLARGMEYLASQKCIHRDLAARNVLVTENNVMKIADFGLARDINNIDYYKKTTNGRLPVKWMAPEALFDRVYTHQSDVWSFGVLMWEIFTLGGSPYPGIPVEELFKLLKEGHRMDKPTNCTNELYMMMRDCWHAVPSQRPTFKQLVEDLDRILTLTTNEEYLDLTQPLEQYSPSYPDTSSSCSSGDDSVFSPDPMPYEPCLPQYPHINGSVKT
T2 sequence (P21803 22-821, one chain of several): as above
T3 sequence (P16092 22-822, one chain of several): as the sequence (P16092 22-822, one chain of several) above
Chain of FGFR4/betaKlotho-expressing BaF3 cells (Q03142 17-366 limits assumed, one chain of several): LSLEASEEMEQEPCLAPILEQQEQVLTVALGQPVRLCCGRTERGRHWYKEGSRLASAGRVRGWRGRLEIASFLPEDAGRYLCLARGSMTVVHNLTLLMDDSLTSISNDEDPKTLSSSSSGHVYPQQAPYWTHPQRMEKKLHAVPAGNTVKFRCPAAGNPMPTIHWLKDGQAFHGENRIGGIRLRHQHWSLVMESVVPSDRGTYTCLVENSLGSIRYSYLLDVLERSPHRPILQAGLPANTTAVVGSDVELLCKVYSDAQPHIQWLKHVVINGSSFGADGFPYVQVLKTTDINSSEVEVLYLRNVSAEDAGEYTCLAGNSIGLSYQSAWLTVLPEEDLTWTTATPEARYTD
Chain of FGFR4/betaKlotho-expressing cells (Q03142 143-366 limits assumed, one chain of several): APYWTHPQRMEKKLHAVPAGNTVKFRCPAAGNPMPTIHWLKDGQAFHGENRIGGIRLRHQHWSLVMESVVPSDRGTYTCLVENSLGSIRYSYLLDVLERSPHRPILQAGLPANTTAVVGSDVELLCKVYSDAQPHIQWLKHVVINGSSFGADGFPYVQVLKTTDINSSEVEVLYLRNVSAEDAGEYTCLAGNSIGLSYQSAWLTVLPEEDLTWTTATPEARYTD

Substance: FGF19: FGF family member evolutionally relative to FGF21, used for comparison
- DNA synthesis (thymidine incorporated into the cells) ([1]; BaF3 cells expressing FGFR1c and betaKlotho, presence or absence of heparin): strong activity
- DNA synthesis (thymidine incorporated into the cells) ([2]; BaF3 cells expressing FGFR3c and betaKlotho): strong activity
- DNA synthesis (thymidine incorporated into the cells) [3]: strong activity
- DNA synthesis (thymidine incorporated into the cells) [4]: strong activity
- phosphorylation of FRS2 and MAPK [5]: significantly increase the phosphorylation
- phosphorylation of FRS2 and MAPK [6]: significantly increase the phosphorylation
- phosphorylation of FRS2 and MAPK [7]: significantly increase the phosphorylation
- phosphorylation of FRS2 and MAPK [8]: significantly increase the phosphorylation

Substance: heparin [reference compound]
- effect of heparin on the action of FGF21 (DNA synthesis) ([1]; FGFR1c/betaKlotho-expressing BaF3 cells stimulated with FGF21): increases the action of FGF21; also recorded: reactivity was increased
- effect of heparin on reactivity with FGF21 (DNA synthesis) ([2]; FGFR3c/betaKlotho-expressing BaF3 cells stimulated with FGF21): reactivity was increased

Substance: interleukin 3 [reference compound]
- DNA synthesis (thymidine incorporated into the cells) [9]: significantly grew
